Molecules are shown by their SMILES.

Data set [1] is described as follows: Quality of castor oil containing emulsions with different steroids (pH, volume distribution, span, storage stability). It is filed as physicochemical. The following applies: for D(4:3) / pH / Span: emulsion of the steroid; for pH: heat sterilized; for Span: Malvern Mastersizer; for Storage 5 and 40°C: storage stability of emulsion. The procedure:
In order to determinate the quality of the castor oil containing emulsions with different steroids, the following compositions were prepared:
The steroids were weighed in a 50 ml glass beaker. The castor oil (CO) or a mixture of castor oil and soybeans oil (CO+SBO) in a proportion of 70 : 30 was added to the beaker which was heated and the steroids were dissolved. The phospholipids were added to the oil phase and the agitation continued for another five minutes. This mixture was added to a heated aqueous phase containing water and glycerol and agitated for five minutes. The mixture was thereafter homogenized to an emulsion in a high pressure lab scale homogeniser at the technically highest possible pressure. The resultant emulsions were dispersed and sealed 20 ml glass vials which were heat sterilized. The emulsions were analysed with respect to the appearance, the shaking stability, pH and volume distribution. The span was analysed with a Malvern Mastersizer. The appearance of the droplets larger than 1µm and the average area on a relevant picture and the presence of precipitate were investigated with a microscope. The storage stability at 5 and 40°C was also studied.

Data set [2] can be described thus: Solubility of steroid and stability of the oil-in-water emulsions of Example 2. It is filed as physicochemical. The following applies: in Formulation 1 compared with Formulation 3. The procedure: For the biological experimentation oil-in-water emulsions were prepared from the following components:
pH was adjusted to 8.5 by NaOH and water for injection was added to 1 ml in all formulations.
Formulations 1 and 2 are emulsions according to the present invention, whereas Formulation 3 is a state of the art emulsion according to the European patent EP 233 849. The medium chain triglycerides in Formulation 2 are derived from coconut oil and will contain a fraction of triglycerides with fatty add residues having 6 to 12 carbon atoms. According to the present invention, the eltanolone was first mixed with castor oil or a mixture of castor oil and soybean oil and/or MCT. This leads to a substantial dissolution of the eltanolone. An emulsion was then prepared from the resulting oil-eltanolone mixture together with the additional indicated components. The resulting emulsions were stable and had average particle sizes of about 0.2 to 0.3 µ and could be sterilized by autoclaving without destabilisation. It is notable that in Formulations 1 and 2 according to the present invention half the amount of lipids is sufficient for obtaining a substantial dissolution of eltanolone when compared to Formulation 3. The solubility of eltanolone is for example about 5 times higher in Formulation 1 than in Formulation 3.

The mark [3] stands for this setting: vehicle CO+SBO (castor oil and soybean oil 70 : 30).

On to `CC(=O)[C@H]1CC[C@H]2[C@@H]3CC[C@H]4C[C@H](O)CC[C@]4(C)[C@H]3CC[C@]12C` [Allo pregnanolone, 5α-pregnan-3β-ol-20-one], for which, in data set [1] (vehicle CO (castor oil)), the “D(4:3)” value was 0.69 µm; the pH was 8.8; the Span is 1.70; the “Storage 5 and 40°C” value is recorded as over 3 months. In data set [1] (vehicle CO+SBO (70 : 30)), the “D(4:3)” value is 0.53 µm; the Span is on record as 1.58; the “Storage 5 and 40°C” value is over 3 months. In data set [1] (setting [3]), the pH worked out at 9.0.

With `C[C@]12CC[C@@H](O)C[C@@H]1CC[C@@H]1[C@@H]2CC[C@]2(C)C(=O)CC[C@@H]12` [Androsterone, 5α-androstan-3α-ol-17-one], in data set [1] (vehicle CO (castor oil)), the “D(4:3)” value was determined as 0.83 µm; the pH is 8.9; the Span amounted to 1.79; the “Storage 5 and 40°C” value was over 1 month months. Moreover, in data set [1] (vehicle CO+SBO (70 : 30)), the “D(4:3)” value turned out to be 0.51 µm; the Span came out at 1.50; the “Storage 5 and 40°C” value is given as over 1 month months. In addition, in data set [1] (setting [3]), the pH is reported as 9.2.

On to `CC(=O)[C@H]1CC[C@H]2[C@@H]3CC[C@@H]4C[C@@H](O)CC[C@]4(C)[C@H]3CC[C@]12C` [Epipreganolone, 5β-pregnan-3β-ol-20-one], for which, in data set [1] (vehicle CO (castor oil)), the “D(4:3)” value was determined as 0.75 µm; the pH was 8.8; the Span worked out at 1.81; the “Storage 5 and 40°C” value is given as over 4 months. Further, in data set [1] (vehicle CO+SBO (70 : 30)), the “D(4:3)” value is reported as 0.75 µm; the Span came to 1.71; the “Storage 5 and 40°C” value is listed as over 4 months. In data set [1] (setting [3]), the pH is given as 9.0.

As for `C[C@]12CCC(=O)C=C1CC[C@@H]1[C@@H]2[C@@H](O)C[C@@]2(C)[C@H]1CC[C@]2(O)C(=O)CO` [Hydrocortisone, 11β,17α,21-trihydroxypregna-4-ene-3,20-dione, reference compound], the “D(4:3)” value in data set [1] (vehicle CO (castor oil)) worked out at 0.76 µm; in data set [1] (vehicle CO+SBO (70 : 30)) it was 0.56 µm. Further, the pH is 8.7 in data set [1] (vehicle CO (castor oil)) and 8.8 in data set [1] (setting [3]). The Span in data set [1] (vehicle CO (castor oil)) came to 1.43; in data set [1] (vehicle CO+SBO (70 : 30)), 1.51.

Turning to `C[C@]12C=CC(=O)C=C1CC[C@@H]1[C@@H]2[C@@H](O)C[C@@]2(C)[C@H]1CC[C@]2(O)C(=O)CO` [Prednisolone, 11β-11, 17, 21-trihydroxypregna-1,4-diene-3,20-dione, reference compound], in data set [1] (vehicle CO (castor oil)), the “D(4:3)” value was determined as 0.81 µm; the pH came out at 8.9; the Span came to 1.28; the “Storage 5 and 40°C” value is recorded as over 2 months. Besides, in data set [1] (vehicle CO+SBO (70 : 30)), the “D(4:3)” value was determined as 0.70 µm; the Span was found to be 1.26; the “Storage 5 and 40°C” value is recorded as over 2 months. The compound further showed a pH in data set [1] (setting [3]) of 8.9.

With `CC(=O)[C@H]1CC[C@H]2[C@@H]3CC=C4C[C@@H](OS(=O)(=O)O)CC[C@]4(C)[C@H]3CC[C@]12C` [Pregnenolone sulphate, 5-pregnen-3β-ol-20-one-sulphate], in data set [1] (vehicle CO (castor oil)), the “D(4:3)” value is on record as 0.97 µm; the pH was determined as 8.8; the Span amounted to 1.76; the “Storage 5 and 40°C” value is given as over 1 month months. Also, in data set [1] (vehicle CO+SBO (70 : 30)), the “D(4:3)” value is on record as 0.50 µm; the Span is on record as 1.56; the “Storage 5 and 40°C” value is listed as over 1 month months. The same compound had a pH in data set [1] (setting [3]) of 8.8.

`C[C@]12CC[C@@H](O)C[C@H]1CC[C@@H]1[C@@H]2CC[C@]2(C)[C@@H](C(=O)CO)CC[C@@H]12` [Tetrahydrodeoxycorticosterone, 5β-pregnan-3α,21-diol-20-one]: in data set [1] (vehicle CO (castor oil)), the “D(4:3)” value is given as 0.86 µm; the pH is listed as 9.0; the Span is on record as 1.80; the “Storage 5 and 40°C” value is listed as over 1 month months. For the same compound, in data set [1] (vehicle CO+SBO (70 : 30)), the “D(4:3)” value is 0.58 µm; the Span was 1.52; the “Storage 5 and 40°C” value is given as over 1 month months. This compound also came in with a pH in data set [1] (setting [3]) of 9.1.

Consider `CC(=O)[C@H]1CC[C@H]2[C@@H]3CC[C@@H]4C[C@H](O)CC[C@]4(C)[C@H]3CC[C@]12C` [eltanolone, 5β-pregnan-3α-ol-20-one], for which the solubility of eltanolone result in data set [2] is “about 5 times higher”.

For the origin of these results see patent EP0659072B1, “PHAR[…] […] STEROIDS” (Pharmacia AB, priority 1993, dated 1995).
